The target in assay [1] is T1, human PTPN2 (Homo sapiens, UniProt P17706).
T1 sequence (P17706 1-415): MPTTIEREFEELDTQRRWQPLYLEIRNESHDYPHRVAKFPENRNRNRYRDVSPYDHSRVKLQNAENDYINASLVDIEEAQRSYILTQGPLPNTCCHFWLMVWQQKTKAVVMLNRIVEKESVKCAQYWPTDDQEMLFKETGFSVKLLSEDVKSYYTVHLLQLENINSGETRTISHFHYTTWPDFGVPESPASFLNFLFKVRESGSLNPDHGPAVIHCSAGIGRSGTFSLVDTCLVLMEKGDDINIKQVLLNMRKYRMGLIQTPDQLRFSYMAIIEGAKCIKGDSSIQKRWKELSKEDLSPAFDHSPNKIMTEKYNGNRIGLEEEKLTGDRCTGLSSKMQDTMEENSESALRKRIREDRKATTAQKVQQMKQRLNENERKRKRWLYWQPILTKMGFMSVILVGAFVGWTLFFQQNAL
Put plainly: Phosphatase activity assay using DiFMUP as substrate (PTPN2 BCHEM DIFMUP). Type of assay: biochemical. Details: purchased MilliporeSigma SRP5075. The conditions noted are these: human PTPN2 0.15 nM, 10 mM DTT, room temperature. The method, then: The PTPN2 biochemical assay was performed as follows, a 5× stock solution of human PTPN2 (SRP5075, MilliporeSigma, Burlington, MA) and a 1.25× stock solution of DiFMUP (D6567, ThermoFisher Scientific, Waltham, MA), were prepared in 1× reaction buffer consisting of 50 mM HEPES, pH 7.4, 1 mM EDTA, 150 mM NaCl, 0.2 mg/mL BSA, 100 U/mL catalase and 10 mM DTT. […] of the DiFMUP substrate solution, for a final concentration of […] DiFMUP substrate, was added to a Corning 3574 384-well, white, non-binding surface microtiter plate containing […] of serially diluted test compounds prepared in DMSO. The reactions were started with the addition of […] of the enzyme solution, for a final PTPN2 concentration of 0.15 nM, and monitored every 105 seconds for 60 minutes at λEX 360/λEM 460 in a BioTek Synergy HTX plate reader (Agilent Technologies, Santa Clara, CA) at room temperature. The initial linear portions of the progress curves were fit according to a linear equation to yield the slopes and converted to % inhibition based on a value of 100% activity for the no inhibitor treated control. IC50 values of each compound were obtained by fitting the % inhibition-compound concentration curves using Dotmatics software (Dotmatics, Bishops Stortford, Hertfordshire, England).
(§1) For IC50 data, High DDT concentration and/or DiFMUP substrate assays were used; a skilled artisan may use either assay.

Assay [2] concerns the target T1, human PTPN2. Put plainly: PTPN2 BCHEM (PhosphoSens assay, substrate AQT0264). The class given is biochemical. The following applies: PhosphoSens substrate AQT0264 20 μM, PTPN2 150 pM, room temperature. The method, then: A PhosphoSens® kinase assay was performed as described by the vendor (AssayQuant Technologies, Marlborough, MA). Briefly, 1000× solutions of compounds were prepared in DMSO via serial dilution of the 10 mM DMSO stocks using 3-fold intervals in a 384-well reagent plate. 50 nL of the compound dilution series was then added to the corresponding wells of a 384-well assay plate. 40 mL of 1.25× substrate (AQT0264) in 1× assay buffer (50 mM HEPES pH 7.5, 500 μM EGTA, […] MgCl2, 0.01% Brij-35, 1% Glycerol, 1 mM DTT, and 0.2 mg/mL BSA) was transferred to each well of the assay plate to achieve a final substrate concentration of 20 μM. Finally, […] of 5× PTPN2 enzyme stock was added to each well of the assay plate for a final enzyme concentration of 150 pM. Reaction progress curves were collected by sampling fluorescence intensity at the excitation wavelength 360 nm (λex360) and emission wavelength 480 nm (λem480) every 71 seconds for one hour using a Synergy H4 plate reader (BioTek Instruments/Agilent Technologies, Winooski, VT) at room temperature.
as §1

Assay [3] relates to phosphorylated STAT1 in B16-F10 cells. Kind of assay: Phospho-STAT1 (Tyr701) HTRF assay in B16-F10 cells with IFN-gamma. Type of assay: cell-based. The conditions noted are these: mouse IFN-gamma 100 ng/mL, 1 hour, read-out: pSTAT1 HTRF B16 EC50. The method, then:
B16-F10 cells (ATCC, Manassas, VA, #CRL-6475) were cultured in DMEM growth medium (ThermoFisher Scientific, Waltham, MA, #11995-040) supplemented with 10% heat inactivated FBS (ThermoFisher Scientific, #16140-071) and 1% pen/strep (ThermoFisher Scientific, #15140-122). The cells were seeded into a white opaque 384-well tissue culture treated microplate (PerkinElmer, Waltham, MA, #6007688) at a density of 10,000 cells/well in 20 uL total volume and incubated overnight at 37 C and 5% CO2. 30 nL of compounds dissolved in DMSO were then transferred from a source plate into target wells with the Echo650 acoustic liquid handler (Beckman Coulter, Indianapolis, IN). Negative control wells received 30 nL of DMSO only (0.15% final concentration). Plates were returned to the incubator for 1 hour and then cells treated with either 5 uL of growth medium or 5 uL of growth medium containing 500 ng/ml of recombinant mouse IFN-gamma protein (R&D Systems, Minneapolis, MN, #485-MI/CF, 100 ng/mL final concentration) using the Assist automated pipetting platform (INTEGRA Biosciences, Hudson, NH). Plates were incubated at 37 C for 1 hour and assayed for phosphorylated STAT1 protein levels with the phospho-STAT1 (Tyr701) HTRF kit (Cisbio, Bedford, MA, #63ADK026PEH) according to manufacturer's instructions. HTRF signal intensity was collected with the EnVision 2105 plate reader (PerkinElmer) 24 hours later and analyzed with the Dotmatics software platform to calculate compound IC50 values.
A general note: In TR-FRET formats the signal depends on donor and acceptor labels being close together.

The next assay has as its system B16-F10 cells. Put plainly: Cell proliferation assay in B16-F10 cells with IFN-gamma (CellTiter-Glo). The following applies: 120 h, mouse IFN-gamma 10 ng/mL, read-out: PTPN2 Prolif 5d B16F10 EC50. The class given is cell-based. On the procedure:
B16-F10 cells (ATCC, Manassas, VA, #CRL-6475) were cultured in DMEM growth medium (ThermoFisher Scientific, Waltham, MA, #11995-040) supplemented with 10% heat inactivated FBS (ThermoFisher Scientific, #16140-071) and 1% pen/strep (ThermoFisher Scientific, #15140-122). The cells were seeded into two white opaque 384-well tissue culture treated microplates (PerkinElmer, Waltham, MA, #6007688) at a density of 100 cells/well in 20 uL total volume and incubated overnight at 37 C and 5% CO2. 30 nL of compounds dissolved in DMSO were then transferred from a source plate into target wells with the Echo650 acoustic liquid handler (Beckman Coulter, Indianapolis, IN). Negative control wells received 30 nL of DMSO only (0.15% final concentration). Plates were returned to the incubator for 1 hour and then cells treated with either 5 uL of growth medium or 5 uL of growth medium containing 50 ng/ml of recombinant mouse IFN-gamma protein (R&D Systems, Minneapolis, MN, #485-MI/CF, 10 ng/mL final concentration) using the Assist automated pipetting platform (INTEGRA Biosciences, Hudson, NH). Plates were incubated at 37C for 4 days and cell proliferation assayed with the CellTiter-Glo reagent (Promega, Madison, WI, #G7573, 25 uL per well). […] Off-target compound mediated cytotoxicity was identified by checking for growth inhibition in the absence of IFNg.

What is called IC50 is the concentration needed to halve the response being measured. Broadly, the EC50 is the concentration needed to bring the measured effect to its halfway point. Regarding `Cc1cc(NCc2cc(O)c(N3CC(=O)NS3(=O)=O)c(F)c2)no1` [EXAMPLE 4, 5-(2-fluoro-6-hydroxy-4-(((5-methylisoxazol-3-yl)amino)methyl)phenyl)-1,2,5-thiadiazolidin-3-one 1,1-dioxide], the IC50 was found to be 30 nM on human PTPN2 [1] and 20 nM at human PTPN2 [2]. Further, the EC50 in assay [3] is 350 nM; in the assay on B16-F10 cells, 1030 nM.
